Common to all, as to test: apoptosis, AnnexinV-FITC/PI flow cytometry
Common to all, as to format: cell-based
A general note: Flow cytometry measures light scatter and fluorescence of single cells or particles in a stream.

Test [1] relates to HepG2. As to conditions: 24 h, dosage not given. From the text: (§1) The tumor cells growing in the logarithmic phase were digested with trypsin, collected by centrifugation to prepare a suspension, the cells were counted and adjusted to a certain concentration (6×10^5 cells per mL for AGS, T47D, Caco2, BCPAP, GES, HUVEC; 5×10^5 cells per mL for HepG2, MDA-MB-231, BGC-823, A549, PC3, L02; 3×10^5 cells per mL for 143B, HOS, U2, SGC-7901, Hela, BV-2; 1.8×10^6 cells per mL for WI-38), and the cells at a certain concentration were transferred to a 6-well plate at a concentration of 1 mL per well. The cells were cultured in a cell culture incubator for 12 h to allow the cells to adhere to the wall. The corresponding dosages of a quercetin 3,3′-dimethyl ether solution were added (the dosage of osteosarcoma cells was 143B: 4 mg/L, HOS: 4 mg/L, U2: 10 mg/L; the dosage of breast cancer cells was MDA-MB-231: 2 mg/L, T47D: 3 mg/L; the dosage of gastric cancer cells was SGC7901: 6 mg/L, BGC823: 5 mg/L, AGS: 3 mg/L; the dosage of cervical cancer Hela cells was 2 mg/L; the dosage of lung cancer cell A549 was 3 mg/L; the dosage of intestinal cancer cells Caco2 was 4 mg/L; the dosage of mouse glioma BV2 was 4 mg/L; the dosage of human prostate cancer cells PC3 was 6 mg/L; and the dosage of human thyroid cancer cells BCPAP was 2 mg/L). While DMSO was used as a solvent control, and then incubated for 24 h. After acting for 24 h, the cells were collected by centrifugation at 300 g, 4° C. for 5 min, a supernatant was discarded, and the cells were washed twice with pre-cooled PBS, each time with centrifugation at 300 g, 4° C. for 5 min. (1˜5)×10^5 cells were collected and resuspended in […] 1× BindingBuffer. 5 μl of AnnexinV-FITC and 5 μl of PI were added, and mixed well gently. The cells were reacted at room temperature for 10 min in the dark. 400 μl of 1× Binding Buffer was added, mixed well, and the samples were detected by flow cytometry within 1 h. The analysis was conducted according to a standard detection procedure of flow cytometry, at an excitation wavelength of 488 nm, and 20,000 cells were counted, and obtained results were analyzed with cell cycle fitting software ModFit.

The subject of test [2] is breast cancer cells T47D. As to conditions: 3 mg/L, 24 h.
Source text: as §1

In test [3] the test system is lung cancer cell A549. Particulars: 3 mg/L, 24 h.
Source text: as §1

The test system of test [4] is intestinal cancer cells Caco2. As to conditions: 4 mg/L, 24 h.
Source text: as §1

Test [5] concerns gastric cancer cells AGS. As to conditions: 3 mg/L, 24 h.
Source text: as §1

Test [6] deals with breast cancer cells MDA-MB-231. As to conditions: 2 mg/L, 24 h.
Source text: as §1

Test [7] has as its system osteosarcoma cells HOS. As to conditions: 4 mg/L, 24 h.
Source text: as §1

The subject of test [8] is mouse glioma BV2. As to conditions: BV-2; 4 mg/L; 24 h.
Source text: as §1

The subject of test [9] is cervical cancer Hela cells. As to conditions: 2 mg/L, 24 h.
Source text: as §1

Test [10] concerns gastric cancer cells BGC-823. Particulars: 5 mg/L, 24 h.
Source text: as §1

In test [11] the test system is human prostate cancer cells PC3. Particulars: 6 mg/L, 24 h.
Source text: as §1

The subject of test [12] is osteosarcoma cells 143B. As to conditions: 4 mg/L, 24 h.
Source text: as §1

Consider one molecule from patent US20240173289A1, “USE OF OXYMETHYL-MODIFIED DERIVATIVE OF QUERCETIN IN PREPARATION OF DRUG FOR INHIBITING TUMOR CELL PROLIFERATION” (ZHEJIANG UNIVERSITY, priority 2021, published 2024).

On to `COc1cc(-c2oc3cc(O)cc(O)c3c(=O)c2OC)ccc1O` [Quercetin 3,3′-dimethyl ether, quercetin 3,3′-dimethyl ether], for which the “Treatment apoptosis ratio %” value in [1] was 32.36 ± 5.26 %; in [2], 16.98 ± 1.37 %; in test [3], 20.28 ± 3.23 %; in test [4] it was 22.81 ± 3.72 *^ %; in test [5] it was 29.47 ± 2.25 %; in test [6], 29.85 ± 4.49 %. Moreover, the “Treatment apoptosis ratio %” value in test [7] amounted to 23.09 ± 4.36 %; in test [8] it was 18.65 ± 0.39 %; in test [9], 20.05 ± 4.31 %; in [10] it was 26.68 ± 3.45 %; in test [11], 21.13 ± 5.11 %; in test [12], 24.72 ± 2.82 %.
